Test results taken from patent US20040024024A1, “Aromatic sulfone hydroxamates and their use as protease inhibitors” (priority 2001, published 2004).

Key:
Assay in all cases: In vitro MMP inhibition, IC50 determination (fluorogenic substrate I)
Assay type in all cases: biochemical
[1] = target: T1, Human recombinant MMP-14 (Homo sapiens, UniProt P50281)
T1 construct: The catalytic domain enzyme was expressed in E. coli inclusion bodies, solubilized in urea; made in house
Summary of the method: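 IC50 came from reduced fluorescence (ex 328 nm, em 415 nm) as inhibitor concentration rose, with 4 μM substrate I cleaved at Gly-Leu. Room-temperature incubation in pH 7.5 Tris buffer with 10 mM CaCl2; the E. coli-expressed, refolded MMP-14 catalytic domain was activated with trypsin or APMA.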

[2] = target: T2, Human recombinant MMP-2 (Homo sapiens, UniProt P08253)
T2 construct: made in house; host or cells: MMP-2-transfected p2AHT2 cells
T2 sequence (P08253 110-660): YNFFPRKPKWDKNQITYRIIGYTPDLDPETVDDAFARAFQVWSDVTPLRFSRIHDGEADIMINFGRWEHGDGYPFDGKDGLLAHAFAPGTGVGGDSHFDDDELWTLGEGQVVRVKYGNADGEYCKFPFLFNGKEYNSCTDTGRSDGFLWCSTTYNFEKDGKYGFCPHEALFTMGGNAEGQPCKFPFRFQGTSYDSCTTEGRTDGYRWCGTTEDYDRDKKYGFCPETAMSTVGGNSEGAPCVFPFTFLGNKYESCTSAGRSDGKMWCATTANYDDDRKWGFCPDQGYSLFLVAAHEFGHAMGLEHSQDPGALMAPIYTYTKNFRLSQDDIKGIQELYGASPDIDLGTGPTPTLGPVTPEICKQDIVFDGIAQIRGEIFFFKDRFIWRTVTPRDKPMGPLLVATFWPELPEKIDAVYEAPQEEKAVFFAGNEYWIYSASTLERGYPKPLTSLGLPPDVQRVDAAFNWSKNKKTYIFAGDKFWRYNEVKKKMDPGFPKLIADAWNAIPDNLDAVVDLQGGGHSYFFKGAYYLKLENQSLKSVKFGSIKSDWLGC
Summary of the method: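 IC50 was derived from the concentration-dependent fall in fluorescence (ex 328, em 415 nm) on Gly-Leu cleavage of 4 μM MCA/Dpa-quenched substrate I. Assays ran at room temperature in pH 7.5 Tris/NaCl/CaCl2/Brij buffer with MMP-2 activated by trypsin or APMA; inhibitors were diluted from 1% DMSO stocks.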

[3] = target: T3, Human recombinant MMP-9 (Homo sapiens, UniProt P14780)
T3 construct: made in house; host or cells: MMP-9-transfected HT1080 cells (spent media)
Summary of the method: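 Reduction in fluorescence (328 nm excitation, 415 nm emission) from cleavage of 4 μM quenched peptide substrate I, measured at room temperature against inhibitor concentration, gave IC50. Enzyme: trypsin- or APMA-activated MMP-9 purified from transfected HT1080 medium; buffer 100 mM Tris, 100 mM NaCl, 10 mM CaCl2, pH 7.5.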

[4] = target: T4, Human recombinant MMP-13 (Homo sapiens, UniProt P45452)
T4 construct: made in house; host or cells: baculovirus / insect cells
Summary of the method: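 Fluorescence at 415 nm (excitation 328 nm) reports Gly-Leu cleavage of 4 μM quenched methoxycoumarin peptide substrate I. Human recombinant MMP-13, activated by trypsin or APMA, was incubated at room temperature with varied inhibitor concentrations in pH 7.5 Tris/NaCl/CaCl2 buffer; IC50 derived from reduced fluorescence.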

[5] = target: T5, Human recombinant MMP-1 (Homo sapiens, UniProt P03956)
T5 construct: made in house; host or cells: MMP-1-transfected HT-1080 cells (spent media)
T5 sequence (P03956 100-469): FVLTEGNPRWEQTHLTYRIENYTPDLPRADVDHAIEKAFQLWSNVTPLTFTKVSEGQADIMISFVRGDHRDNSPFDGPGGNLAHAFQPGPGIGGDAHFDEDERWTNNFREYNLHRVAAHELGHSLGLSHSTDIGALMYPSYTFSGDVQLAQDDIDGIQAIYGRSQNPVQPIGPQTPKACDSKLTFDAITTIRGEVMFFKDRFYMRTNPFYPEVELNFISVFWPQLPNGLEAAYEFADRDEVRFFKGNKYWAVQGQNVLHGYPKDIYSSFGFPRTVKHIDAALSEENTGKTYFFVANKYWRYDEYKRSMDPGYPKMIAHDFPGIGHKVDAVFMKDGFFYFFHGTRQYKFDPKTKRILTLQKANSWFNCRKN
Summary of the method: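 Inhibitor dilutions were made in 100 mM Tris-HCl/100 mM NaCl/10 mM CaCl2 buffer, pH 7.5, and incubated at room temperature with activated proenzyme (from transfected HT-1080 media; APMA or trypsin) and 4 μM quenched methoxycoumarin peptide substrate. Loss of 415 nm fluorescence (328 nm excitation) against concentration gave IC50.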

[6] = value outside parentheses (Ki in parenthesis)

T3 sequence (P14780 107-707 limits assumed): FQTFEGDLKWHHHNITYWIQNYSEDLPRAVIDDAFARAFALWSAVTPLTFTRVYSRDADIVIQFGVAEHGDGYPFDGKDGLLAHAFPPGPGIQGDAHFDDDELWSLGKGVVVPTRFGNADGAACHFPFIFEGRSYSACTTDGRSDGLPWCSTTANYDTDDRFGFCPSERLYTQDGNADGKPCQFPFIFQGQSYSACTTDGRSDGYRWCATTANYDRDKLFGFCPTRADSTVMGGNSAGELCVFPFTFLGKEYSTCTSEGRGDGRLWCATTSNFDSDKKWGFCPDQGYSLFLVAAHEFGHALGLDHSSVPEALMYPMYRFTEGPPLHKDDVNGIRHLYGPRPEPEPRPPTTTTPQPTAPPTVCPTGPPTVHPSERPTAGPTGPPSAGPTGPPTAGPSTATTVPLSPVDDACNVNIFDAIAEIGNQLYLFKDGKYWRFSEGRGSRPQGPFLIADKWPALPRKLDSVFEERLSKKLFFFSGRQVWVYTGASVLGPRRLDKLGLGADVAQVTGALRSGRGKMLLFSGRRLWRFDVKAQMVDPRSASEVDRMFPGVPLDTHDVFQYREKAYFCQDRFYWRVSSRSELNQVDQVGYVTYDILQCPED

| IC50 ([1]; value outside parenthesis) [nM] | IC50 ([2]; value outside parenthesis) [nM] | IC50 ([3]; value outside parenthesis) [nM] | IC50 ([4]; value outside parenthesis) [nM] | IC50 ([5]; value outside parenthesis) [nM] | SMILES | also measured |
| --- | --- | --- | --- | --- | --- | --- |
| – | – | – | – | – | COc1ccc(CC(=O)NCCOc2ccc(S(=O)(=O)C3(C(=O)NO)CCOCC3)cc2)cc1 [Example 616] | IC50 ([1]; value outside parentheses): 1970 nM; IC50 ([2]; value outside parentheses): 5.3 nM; IC50 ([3]; value outside parentheses): 54.8 nM; IC50 ([4]; value outside parentheses): 2 nM; IC50 ([5]; value outside parentheses): 1580 nM |
| 1700 | 15.7 | 106 | 0.2 | > 10000 | COCCN1CCC(C(=O)NO)(S(=O)(=O)c2ccc(OCCCCC(=O)c3ccc(N(C)C)cc3)cc2)CC1 [Example 248] | – |
| > 10000 | 42.5 | 1110 | 0.7 | > 10000 | COc1ccc(-c2noc(CCCOc3ccc(S(=O)(=O)C4(C(=O)NO)CCOCC4)cc3)n2)cc1 [Example 237] | – |
| – | – | – | – | – | O=C(NO)C1(S(=O)(=O)c2ccc(OCCCn3nnc(-c4ccc(C(F)(F)F)cc4)n3)cc2)CCN(CC(F)(F)F)CC1 [Example 657] | IC50 ([1]; value outside parentheses): 3460 nM; IC50 ([2]; value outside parentheses): 316 nM; IC50 ([3]; value outside parentheses): 380 nM; IC50 ([4]; value outside parentheses): 6030 nM; IC50 ([5]; value outside parentheses): > 10000 nM |
| > 10000 | 10.1 | 18.5 | 1.1 | > 10000 | O=C(NO)C1(S(=O)(=O)c2ccc(OCCCSc3nc4cc(Cl)ccc4s3)cc2)CCOCC1 [Example 284] | – |
| – | – | – | – | – | O=C(NO)C1(S(=O)(=O)c2ccc(OCCCOc3ccc(C(F)(F)F)cc3)cc2)CCN(C2CC2)CC1 [Example 319] | IC50 [1, 6]: 4220 nM; IC50 [2, 6]: 5.8 nM; IC50 [3, 6]: 258 nM; IC50 [4, 6]: 1 nM; IC50 [5, 6]: > 10000 nM |
| > 10000 | 3.6 | 16.4 | 0.8 | > 10000 | CCOc1ccc2nc(SCCCOc3ccc(S(=O)(=O)C4(C(=O)NO)CCOCC4)cc3)sc2c1 [Example 287] | – |
| – | – | – | – | – | COc1ccc(CC(=O)CCCOc2ccc(S(=O)(=O)C3(C(=O)NO)CCOCC3)cc2)cc1 [Example 301] | IC50 [1, 6]: 320 nM; IC50 [2, 6]: 0.2 nM; IC50 [3, 6]: 9.1 nM; IC50 [4, 6]: < 0.1 nM; IC50 [5, 6]: 3660 nM |
| – | – | – | – | – | O=C(CCCCOc1ccc(S(=O)(=O)C2(C(=O)NO)CCOCC2)cc1)c1cccc(-c2ccccc2)c1 [Example 325] | IC50 [1, 6]: > 10000 nM; IC50 [2, 6]: 11 nM; IC50 [3, 6]: 4040 nM; IC50 [4, 6]: 0.5 nM; IC50 [5, 6]: > 10000 nM |
| – | – | – | – | – | O=C(NO)C1(S(=O)(=O)c2ccc(OCCCS(=O)(=O)C3CCCCC3)cc2)CCOCC1 [Example 293] | IC50 [1, 6]: > 10000 nM; IC50 [2, 6]: 2.3 nM; IC50 [3, 6]: 448 nM; IC50 [4, 6]: 2.6 nM; IC50 [5, 6]: 6150 nM |
| > 10000 | 146 | 1820 | 0.6 | > 10000 | Cc1ccc(-c2nnc(CCCOc3ccc(S(=O)(=O)C4(C(=O)NO)CCOCC4)cc3)o2)c(C)c1 [Example 204] | – |
| – | – | – | – | – | NCc1ccc(OCCOc2ccc(S(=O)(=O)C3(C(=O)NO)CCOCC3)cc2)cc1 [Example 650] | IC50 ([1]; value outside parentheses): 2390 nM; IC50 ([2]; value outside parentheses): 1.1 nM; IC50 ([3]; value outside parentheses): 2.46 nM; IC50 ([4]; value outside parentheses): 2.45 nM; IC50 ([5]; value outside parentheses): 2880 nM |
| > 10000 | 2.3 | 10.6 | 0.8 | > 10000 | O=C(NO)C1(S(=O)(=O)c2ccc(OCCCSc3nc4ccccc4s3)cc2)CCOCC1 [Example 288] | – |
| > 10000 | 128 | 4510 | 0.7 | > 10000 | Cc1ccc(/C(C#N)=C/CCCOc2ccc(S(=O)(=O)C3(C(=O)NO)CCN(C4CC4)CC3)cc2)cc1C [Example 201] | – |
